Assay results as given in patent US20260193268A1, “TRICYCLIC PI3Ka INHIBITOR, PREPARATION METHOD THEREFOR, AND PHARMACEUTICAL USE THEREOF” (WIGEN BIOMEDICINE TECHNOLOGY (SHANGHAI) CO., LTD., priority 2022, published 2026).
Like-named read-outs stand apart in the source and are kept apart here.

What was measured:
[1] = test system: HCC1954 cells (with PI3Kα H1047R mutation); assay: In vitro inhibition of HCC1954 cell proliferation (CellTiter-Lumi); assay type: cell-based; conditions: HCC1954 cells, 144 h, CellTiter-Lumi
Experimental: Assay for In Vitro Inhibition of HCC1954 Cell Proliferation by Compounds of the Present Disclosure
The growth of the cells was evaluated, and the IC50 for the inhibition of cell growth by the compounds was calculated.

[2] = test system: MCF-7 cells (with PI3Kα E545K mutation); assay: In vitro inhibition of MCF-7 cell proliferation (CellTiter-Lumi); assay type: cell-based; conditions: Homo sapiens, MCF7, 144 h
Experimental: Biological Example 3. Assay for In Vitro Inhibition of MCF-7 Cell Proliferation by Compounds of the Present Disclosure
MCF-7 cells (with PI3Kα E545K mutation) were seeded into a 384-well plate (Fisher 142762) at 2000 cells per well. The next day, serially diluted compounds were added, and 144 h after the addition, CellTiter-Lumi (Beyotime C0068XL) was added to measure the ATP content in the cells. The growth of the cells was evaluated, and the IC50 for the inhibition of cell growth by the compounds was calculated.

[3] = Homo sapiens, HCC1954, 144 h, class symbols, read-out: Inhibitory activity against HCC1954 cells (IC50), class symbols
[4] = class symbols, read-out: Inhibitory activity against MCF-7 cells (IC50), class symbols
[5] = Homo sapiens, HCC1954, 144 h, numeric values, read-out: Inhibitory activity against HCC1954 cells (IC50)
[6] = numeric values, read-out: Inhibitory activity against MCF-7 cells (IC50)

Compound | IC50 [1, 3] | IC50 [2, 4] | IC50 [1, 5] | IC50 [2, 6] | IC50 ([1]; numeric values, read-out: Inhibitory activity against HCC1954 cells (IC50))
CN(C1COC1)C(C)(C)C=C(C#N)C(=O)Nc1ccc(N2CC(N3CCN(c4ccc5c(c4)-c4nc(N6C(=O)OC[C@H]6C(F)F)cn4CCO5)CC3)C2)cc1 [Compound 274] | < 50 nM | < 50 nM |  |  | 
C=CC(=O)Nc1ccc2c(c1)CCN2CCN1CCN(c2ccc3c(c2)-c2nc(N4C(=O)OC[C@H]4C(F)F)cn2CCO3)CC1 [Compound 205] | 50 to 100 nM | < 50 nM |  |  | 
CC=C(C#N)C(=O)Nc1ccc(N2CC(N3CCN(c4ccc5c(c4)-c4nc(N6C(=O)OC[C@H]6C(F)F)cn4CCO5)CC3)C2)nc1 [Compound 254] | < 50 nM | < 50 nM |  |  | 
CC(C)=CC(=O)CCCC(=O)N1CCC(/C=C/c2ccc3c(c2)-c2nc(N4C(=O)OC[C@H]4C(F)F)cn2CCO3)CC1 [Compound 189] | 50 to 100 nM | < 50 nM |  |  | 
CN(C1COC1)C(C)(C)C=C(C#N)C(=O)Nc1ccc(N2CC(N3CCN(c4ccc5c(c4)-c4nc(N6C(=O)OC[C@H]6C(F)F)cn4CCO5)CC3)C2)c(Cl)c1 [Compound 352] | < 50 nM | < 50 nM |  |  | 
CC(C)(N)C=C(C#N)C(=O)Nc1ccc(N2CC(N3CCN(c4ccc5c(c4)-c4nc(N6C(=O)OC[C@H]6C(F)F)cn4CCO5)CC3)C2)c(Cl)c1 [Compound 351] | < 50 nM | < 50 nM |  |  | 
CC#CC(=O)N1CCc2cc(N3CC(N4CCN(c5ccc6c(c5)-c5nc(N7C(=O)OC[C@H]7C(F)F)cn5CCO6)CC4)C3)ccc21 [Compound 165] |  |  | 30 nM | 3.4 nM | 
C=CC(=O)Nc1ccc(N2CC(N3CCN(c4ccc5c(c4)-c4nc(N6C(=O)OC[C@H]6C(F)F)cn4CCO5)CC3)C2)cc1Cl [Compound 194] |  |  | 1.2 nM | 0.1 nM | 
C=CC(=O)Nc1ccc(N2CCC(N3CCN(c4ccc5c(c4)-c4nc(N6C(=O)OC[C@H]6C(F)F)cn4CCO5)CC3)C2)cc1 (single isomer, unassigned) [Compound 29] |  |  | 75 nM | 13 nM | 
CC1(C=C(C#N)C(=O)Nc2ccc(N3CC(N4CCN(c5ccc6c(c5)-c5nc(N7C(=O)OC[C@H]7C(F)F)cn5CCO6)CC4)C3)nc2)COC1 [Compound 251] | < 50 nM | < 50 nM |  |  | 
C=CC(=O)Nc1ccc(N2CCC(C#Cc3ccc4c(c3)-c3nc(N5C(=O)OC[C@H]5C(F)F)cn3CCO4)CC2)cc1 [Compound 202] | 50 to 100 nM | < 50 nM |  |  | 
CC(=O)NC(C)(C)C=C(C#N)C(=O)Nc1ccc(N2CC(N3CCN(c4ccc5c(c4)-c4nc(N6C(=O)OC[C@H]6C(F)F)cn4CCO5)CC3)C2)c(F)c1 [Compound 347] | < 50 nM | < 50 nM |  |  | 
Cc1nc(-c2cn3c(n2)-c2cc(N4CCN(C5CN(c6ccc(NC(=O)C(C#N)=CC(C)(C)C)cn6)C5)CC4)ccc2OCC3)n(C(C)C)n1 [Compound 368] | < 50 nM | < 50 nM |  |  | 
CC1CC1C=C(C#N)C(=O)Nc1ccc(N2CC(N3CCN(c4ccc5c(c4)-c4nc(N6C(=O)OC[C@H]6C(F)F)cn4CCO5)CC3)C2)cc1 (stereo partly shown) [Compound 284] | < 50 nM | < 50 nM |  |  | 
C=CC(=O)Nc1ccc2c(c1)CCN(C1CCN(c3ccc4c(c3)-c3nc(N5C(=O)OC[C@H]5C(F)F)cn3CCO4)CC1)C2 [Compound 204] | 50 to 100 nM | < 50 nM |  |  | 
CC(C)(C=C(C#N)C(=O)Nc1ccc(N2CC(N3CCN(c4ccc5c(c4)-c4nc(N6C(=O)OC[C@H]6C(F)F)cn4CCO5)CC3)C2)cc1Cl)N1CCC1 [Compound 363] | < 50 nM | < 50 nM |  |  | 
CNC(C)(C)C=C(C#N)C(=O)Nc1ccc(N2CC(N3CCN(c4ccc5c(c4)-c4nc(N6C(=O)OC[C@H]6C(F)F)cn4CCO5)CC3)C2)cc1 [Compound 145] |  |  | 0.6 nM | 0.1 nM | 
C=CC(=O)N1CCc2cc(N3CC(N4CCN(c5ccc6c(c5)-c5nc(N7C(=O)OC[C@H]7C(F)F)cn5CCO6)CC4)C3)cnc21 [Compound 167] |  |  | 544 nM | 219 nM | 

Compound | IC50 [1, 3] | IC50 [2, 4] | IC50 [1, 5] | IC50 [2, 6] | IC50 ([1]; numeric values, read-out: Inhibitory activity against HCC1954 cells (IC50))
C=CC(=O)Nc1ccc(N2CCN(c3ccc(-c4ccc5c(c4)-c4nc(N6C(=O)OC[C@H]6C(F)F)cn4CCO5)cc3)CC2)cc1 [Compound 196] | > 1000 nM | > 1000 nM |  |  | 
CC(C)(C=C(C#N)C(=O)Nc1ccc(N2CC(N3CCN(c4ccc5c(c4)-c4nc(N6C(=O)OC[C@H]6C(F)F)cn4CCO5)CC3)C2)cc1)N1CC2(CCOCC2)C1 [Compound 313] | < 50 nM | < 50 nM |  |  | 
C=CC(=O)Nc1ccc(N2CC(N3CCN(c4ccc5c(c4)-c4nc(N6C(=O)OC[C@H]6C(F)F)cn4CCO5)CC3)C2)c(Cl)c1 [Compound 195] |  |  | 4.6 nM | 0.3 nM | 
CC(C)(O)C=C(C#N)C(=O)Nc1ccc(N2CC(N3CCN(c4ccc5c(c4)-c4nc(N6C(=O)OC[C@H]6C(F)F)cn4CCO5)CC3)C2)nc1 [Compound 248] | < 50 nM | < 50 nM |  |  | 
C=CC(=O)Nc1ccc(N2CCC3(CCN(c4ccc5c(c4)-c4nc(N6C(=O)OC[C@H]6C(F)F)cn4CCO5)CC3)C2)cc1 [Compound 94] |  |  | 300 nM | 76 nM | 
COCCNC(C)(C)C=C(C#N)C(=O)Nc1ccc(N2CC(N3CCN(c4ccc5c(c4)-c4nc(N6C(=O)OC[C@H]6C(F)F)cn4CCO5)CC3)C2)nc1 [Compound 250] | < 50 nM | < 50 nM |  |  | 
Cc1nc(-c2cn3c(n2)-c2cc(N4CCN(C5CN(c6ccc(NC(=O)C(C#N)=CC(C)(C)NC(=O)OC(C)(C)C)cc6Cl)C5)CC4)ccc2OCC3)n(C(C)C)n1 [Compound 373] | < 50 nM | < 50 nM |  |  | 
Cc1cc2c(cc1N1CCN(C3CN(c4ccc(NC(=O)C(C#N)=CC(C)(C)C)cc4)C3)CC1)-c1nc(N3C(=O)OC[C@H]3C(F)F)cn1CCO2 [Compound 320] | < 50 nM | < 50 nM |  |  | 
C=CC(=O)Nc1ccc(N2CC(N3CCN(c4ccc5c(c4)-c4nc(N6C(=O)OC[C@H]6C(F)F)cn4CCO5)CC3)C2)c(OC)c1 [Compound 280] |  |  | 3.4 nM | 0.2 nM | 
CC(C)(N)C=C(C#N)C(=O)Nc1ccc(N2CC(N3CCN(c4ccc5c(c4)-c4nc(N6C(=O)OC[C@H]6C(F)F)cn4CCO5)CC3)C2)nn1 [Compound 297] | < 50 nM | < 50 nM |  |  | 
C=CC(=O)N1CCc2cc(N3CC(N4CCN(c5ccc6c(c5)-c5nc(N7C(=O)OC[C@H]7C(F)F)cn5CCO6)CC4)C3)ccc21 [Compound 134] |  |  | 2.7 nM | 0.2 nM | 
CC(C)=CC(=O)CCC(=O)N1CCC(C#Cc2ccc3c(c2)-c2nc(N4C(=O)OC[C@H]4C(F)F)cn2CCO3)CC1 [Compound 191] | 50 to 100 nM | < 50 nM |  |  | 
CC(C)(C=C(C#N)C(=O)Nc1ccc(N2CC(N3CCN(c4ccc5c(c4)-c4nc(N6C(=O)OC[C@H]6C(F)F)cn4CCO5)CC3)C2)nc1)N1CCOCC1 [Compound 240] | < 50 nM | < 50 nM |  |  | 
C[C@H](Nc1ccc2c(c1)OCCn1cc(N3C(=O)OC[C@H]3C(F)F)nc1-2)C(N)=O [GDC0077, GDC-0077, reference compound] |  |  |  | 55 nM | 82 nM
N#CC(=CC1(N)CC1)C(=O)Nc1cnc(N2CC(N3CCN(c4ccc5c(c4)-c4nc(N6C(=O)OC[C@H]6C(F)F)cn4CCO5)CC3)C2)nc1 [Compound 271] | < 50 nM | < 50 nM |  |  | 
C=C(F)C(=O)Nc1ccc(N2CC(CN3CCN(c4ccc5c(c4)-c4nc(N6C(=O)OC[C@H]6C(F)F)cn4CCO5)CC3)C2)cc1 [Compound 46] |  |  | 306 nM | 74 nM | 
C=CC(=O)N1CC(N2CCC(N3CCN(c4ccc5c(c4)-c4nc(N6C(=O)OC[C@H]6C(F)F)cn4CCO5)CC3)C2)C1 (stereo partly shown) [Compound 90] |  |  | 225 nM | 12 nM | 
